Measured values published in PubChem BioAssay AID2060900 (Molecular Pharmacology Branch, DTP, NCI, 2025).

Test system: 521955-158-R2-J5-PDC complex spheroids, viability
Assay: Anticancer human tumor 521955-158-R2-J5-PDC patient-derived pancreatic carcinoma cell line growth inhibition [RAS]
Conditions: for viability, T/C: stronger effect = lower value
Procedure, shortened: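 Tumour cells grown as complex spheroids with HUVEC endothelial cells and mesenchymal stem cells, treated with RAS pathway inhibitor combinations. Each agent spans half-log steps from near clinical Cmax, or 10 microM where Cmax is unknown.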

[1] = curve of first compound, second compound 0.0316 µM
[2] = curve of first compound, second compound 0.1 µM
[3] = curve of first compound, second compound 0.316 µM
[4] = curve of first compound, second compound 1 µM
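Further: compound exposure lasted seven days before the viability read.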
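Wherever viability, T/C is given: spheroids also contain HUVEC endothelial cells and mesenchymal stem cells as stroma.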

## Nc1ccn(C2OC(CO)C(O)C2(F)F)c(=O)n1 (configuration not stated) + C#Cc1c(F)ccc2cc(O)cc(-c3ncc4c(N5CC6CCC(C5)N6)nc(OCC56CCCN5CC(F)C6)nc4c3F)c12
[1]
  IC50: < 3.16 nM
[2]
  IC50: < 3.16 nM
[3]
  IC50: < 3.16 nM
[4]
  IC50: 3.68 nM
Curve of first compound, second compound 3.16 µM
  IC50: < 3.16 nM
Curve of first compound, second compound 10 µM
  IC50: < 3.16 nM
Second compound 0.0316 µM, first compound 0.00316 µM
  viability, T/C: 48.8%
Second compound 0.0316 µM, first compound 0.01 µM
  viability, T/C: 39.5%
Second compound 0.0316 µM, first compound 0.0316 µM
  viability, T/C: 32.6%
Second compound 0.0316 µM, first compound 0.1 µM
  viability, T/C: 24.9%
Second compound 0.0316 µM, first compound 0.316 µM
  viability, T/C: 24.1%
Second compound 0.0316 µM, first compound 1 µM
  viability, T/C: 18.5%
Second compound 0.1 µM, first compound 0.00316 µM
  viability, T/C: 44.5%
Second compound 0.1 µM, first compound 0.01 µM
  viability, T/C: 44.9%
Second compound 0.1 µM, first compound 0.0316 µM
  viability, T/C: 28.8%
Second compound 0.1 µM, first compound 0.1 µM
  viability, T/C: 20.9%
Second compound 0.1 µM, first compound 0.316 µM
  viability, T/C: 21%
Second compound 0.1 µM, first compound 1 µM
  viability, T/C: 15.4%
Second compound 0.316 µM, first compound 0.00316 µM
  viability, T/C: 43.3%
Second compound 0.316 µM, first compound 0.01 µM
  viability, T/C: 42.9%
Second compound 0.316 µM, first compound 0.0316 µM
  viability, T/C: 28.8%
Second compound 0.316 µM, first compound 0.1 µM
  viability, T/C: 23.4%
Second compound 0.316 µM, first compound 0.316 µM
  viability, T/C: 17.4%
Second compound 0.316 µM, first compound 1 µM
  viability, T/C: 17.8%
Second compound 1 µM, first compound 0.00316 µM
  viability, T/C: 52.4%
Second compound 1 µM, first compound 0.01 µM
  viability, T/C: 34.6%
Second compound 1 µM, first compound 0.0316 µM
  viability, T/C: 27.7%
Second compound 1 µM, first compound 0.1 µM
  viability, T/C: 16.4%
Second compound 1 µM, first compound 0.316 µM
  viability, T/C: 15.3%
Second compound 1 µM, first compound 1 µM
  viability, T/C: 14%
Second compound 3.16 µM, first compound 0.00316 µM
  viability, T/C: 48.5%
Second compound 3.16 µM, first compound 0.01 µM
  viability, T/C: 41.6%
Second compound 3.16 µM, first compound 0.0316 µM
  viability, T/C: 27.5%
Second compound 3.16 µM, first compound 0.1 µM
  viability, T/C: 20.8%
Second compound 3.16 µM, first compound 0.316 µM
  viability, T/C: 15%
Second compound 3.16 µM, first compound 1 µM
  viability, T/C: 13%
Second compound 10 µM, first compound 0.00316 µM
  viability, T/C: 35.9%
Second compound 10 µM, first compound 0.01 µM
  viability, T/C: 32.7%
Second compound 10 µM, first compound 0.0316 µM
  viability, T/C: 20.8%
Second compound 10 µM, first compound 0.1 µM
  viability, T/C: 20.4%
Second compound 10 µM, first compound 0.316 µM
  viability, T/C: 13.4%
Second compound 10 µM, first compound 1 µM
  viability, T/C: 9.08%

## CC(=O)OC12COC1CC(O)C1(C)C(=O)C(O)C3=C(C)C(OC(=O)C(O)C(NC(=O)OC(C)(C)C)c4ccccc4)CC(O)(C(OC(=O)c4ccccc4)C21)C3(C)C (configuration not stated)
Compound 0.0316 µM
  viability, T/C: 38.4% [middle of 4 runs]
Compound 0.316 µM
  viability, T/C: 27.9% [middle of 4 runs]
Compound 1 µM
  viability, T/C: 35% [middle of 4 runs]
Compound 3.16 µM
  viability, T/C: 42.6% [middle of 4 runs]
Curve of compound
  IC50: < 31.6 nM

## CC1(C)CCC(Nc2ncc(C(F)(F)F)c(-c3c[nH]c4c(P(C)(C)=O)c(C#N)ccc34)n2)CN1 (configuration not stated) + C=CC(=O)N1CCN(c2nc(OCC3CCCN3C)nc3c(F)c(-c4nc(N)cc(C)c4C(F)(F)F)c(Cl)cc23)C(C)C1
Curve of first compound, second compound 0.00316 µM
  IC50: > 300 nM
Curve of first compound, second compound 0.01 µM
  IC50: > 300 nM
[1]
  IC50: > 300 nM
[2]
  IC50: > 300 nM
[3]
  IC50: > 300 nM
[4]
  IC50: > 300 nM
Second compound 0.00316 µM, first compound 0.000949 µM
  viability, T/C: 80.7%
Second compound 0.00316 µM, first compound 0.003 µM
  viability, T/C: 73.7%
Second compound 0.00316 µM, first compound 0.00949 µM
  viability, T/C: 67.7%
Second compound 0.00316 µM, first compound 0.03 µM
  viability, T/C: 51.1%
Second compound 0.00316 µM, first compound 0.0949 µM
  viability, T/C: 49.5%
Second compound 0.00316 µM, first compound 0.3 µM
  viability, T/C: 53.3%
Second compound 0.01 µM, first compound 0.000949 µM
  viability, T/C: 81.2%
Second compound 0.01 µM, first compound 0.003 µM
  viability, T/C: 78.5%
Second compound 0.01 µM, first compound 0.00949 µM
  viability, T/C: 52.6%
Second compound 0.01 µM, first compound 0.03 µM
  viability, T/C: 53%
Second compound 0.01 µM, first compound 0.0949 µM
  viability, T/C: 58.3%
Second compound 0.01 µM, first compound 0.3 µM
  viability, T/C: 60.4%
Second compound 0.0316 µM, first compound 0.000949 µM
  viability, T/C: 75.4%
Second compound 0.0316 µM, first compound 0.003 µM
  viability, T/C: 78.7%
Second compound 0.0316 µM, first compound 0.00949 µM
  viability, T/C: 57.5%
Second compound 0.0316 µM, first compound 0.03 µM
  viability, T/C: 55.8%
Second compound 0.0316 µM, first compound 0.0949 µM
  viability, T/C: 73%
Second compound 0.0316 µM, first compound 0.3 µM
  viability, T/C: 53.8%
Second compound 0.1 µM, first compound 0.000949 µM
  viability, T/C: 90%
Second compound 0.1 µM, first compound 0.003 µM
  viability, T/C: 86.3%
Second compound 0.1 µM, first compound 0.00949 µM
  viability, T/C: 57.9%
Second compound 0.1 µM, first compound 0.03 µM
  viability, T/C: 64.2%
Second compound 0.1 µM, first compound 0.0949 µM
  viability, T/C: 65.8%
Second compound 0.1 µM, first compound 0.3 µM
  viability, T/C: 56.9%
Second compound 0.316 µM, first compound 0.000949 µM
  viability, T/C: 84.5%
Second compound 0.316 µM, first compound 0.003 µM
  viability, T/C: 76.5%
Second compound 0.316 µM, first compound 0.00949 µM
  viability, T/C: 51.3%
Second compound 0.316 µM, first compound 0.03 µM
  viability, T/C: 65.3%
Second compound 0.316 µM, first compound 0.0949 µM
  viability, T/C: 67%
Second compound 0.316 µM, first compound 0.3 µM
  viability, T/C: 49.2%
Second compound 1 µM, first compound 0.000949 µM
  viability, T/C: 106%
Second compound 1 µM, first compound 0.003 µM
  viability, T/C: 77.5%
Second compound 1 µM, first compound 0.00949 µM
  viability, T/C: 56.3%
Second compound 1 µM, first compound 0.03 µM
  viability, T/C: 51.9%
Second compound 1 µM, first compound 0.0949 µM
  viability, T/C: 63.9%
Second compound 1 µM, first compound 0.3 µM
  viability, T/C: 55.4%

## C#Cc1c(F)ccc2cc(O)cc(-c3ncc4c(N5CC6CCC(C5)N6)nc(OCC56CCCN5CC(F)C6)nc4c3F)c12 (configuration not stated)
Compound 0.0316 µM
  viability, T/C: 64.5% [middle of 8 runs]
Compound 0.1 µM
  viability, T/C: 57.3% [middle of 8 runs]
Compound 0.316 µM
  viability, T/C: 53.9% [middle of 8 runs]
Compound 1 µM
  viability, T/C: 51.1% [middle of 8 runs]
Compound 3.16 µM
  viability, T/C: 45.4% [middle of 8 runs]
Compound 10 µM
  viability, T/C: 35.1% [middle of 8 runs]

## Nc1ccn(C2OC(CO)C(O)C2(F)F)c(=O)n1 (configuration not stated)
Compound 0.00316 µM
  viability, T/C: 101% [middle of 4 runs]
Compound 0.01 µM
  viability, T/C: 79% [middle of 4 runs]
Compound 0.0316 µM
  viability, T/C: 79.1% [middle of 4 runs]
Compound 0.1 µM
  viability, T/C: 72.9% [middle of 4 runs]
Compound 0.316 µM
  viability, T/C: 36.5% [middle of 4 runs]
Compound 1 µM
  viability, T/C: 16.2% [middle of 4 runs]
Curve of compound
  IC50: 183 nM [middle of 4 runs]
